Source: paper PMC10215804, “Exploring Alternative Pathways to Target Bacterial Type II Topoisomerases Using NBTI Antibacterials: Beyond Halogen-Bonding Interactions” (Antibiotics, 2023)
Where two headings read alike, the source gives them in different places.

Legend:
[1] = target: T1, S. aureus DNA gyrase (Staphylococcus aureus, UniProt P20831); test: biochemical; settings: supercoiling inhibition; mean of two independent measurements ± SD
T1 construct: purchased Inspiralis (Norwich, UK)
Method: (§1) To determine the IC50 values of the compounds for S. aureus and E. coli, a DNA gyrase supercoiling high-throughput plate assay and a topoIV relaxation high-throughput plate assay were performed. Assay kits and black streptavidin-coated 96-well microtiter plates are available from Inspiralis (Norwich, UK). For pre-screening, an inhibitor concentration of 100 μM was used. […] A nonlinear regression-based fit of the inhibition curves was used, with the log [inhibitor] versus slope of the reaction variables (four parameters) and a symmetric equation. […] To determine IC50 values, two independent repetitions were performed and the average was calculated.

[2] = target: T2, S. aureus topoIV (Staphylococcus aureus, UniProt P0C1U9); test: biochemical; settings: relaxation inhibition; mean of two independent measurements ± SD
T2 construct: purchased Inspiralis (Norwich, UK)
Method: as §1

[3] = target: T3, E. coli DNA gyrase (Escherichia coli, UniProt P0AES4); test: DNA gyrase supercoiling inhibition assay (high-throughput plate assay); assay type: biochemical
T3 construct: purchased Inspiralis (Norwich, UK)
Method: as §1

[4] = target: T4, E. coli topoIV (Escherichia coli, UniProt P0AFI2); test: topoIV relaxation inhibition assay (high-throughput plate assay); assay type: biochemical
T4 construct: purchased Inspiralis (Norwich, UK)
Method: as §1

[5] = target: T5, human topoisomerase IIα (Homo sapiens, UniProt P11388); test: human topoisomerase II alpha relaxation high-throughput assay (selectivity); assay type: biochemical; settings: residual activity at 100 µM compound; mean ± SD, two independent experiments; read-out: Human TopoIIα (% RA at 100 µM)
T5 construct: purchased Inspiralis (Norwich, UK)
Method: For selectivity determination, a human topoisomerase II alpha relaxation high-throughput assay was used. The assay kits and black streptavidin-coated 96-well microtiter plates are available from Inspiralis (Norwich, UK). Two independent measurements were performed with an inhibitory concentration of 100 µM. Raw data were calculated as the mean ± SD percentage of the residual enzyme activity.

[6] = tested on: A. baumannii; test: MIC, broth microdilution; assay type: cell-based
Method: (§2) For the determination of minimum inhibitory concentrations (MIC), the broth microdilution method was used in 96-well plate format, according to the guidelines of the Clinical and Laboratory Standards Institute and the recommendations of the European Committee on Antimicrobial Susceptibility Testing (EUCAST). The dilutions of the bacterial suspension of the specific bacterial strain, corresponding to the 0.5 McFarland turbidity standard, were prepared with […] Mueller–Hinton broth with TES (Thermo Fisher Scientific) to obtain an end inoculum of 10^5 CFU/mL. The compounds were dissolved in DMSO and mixed with the inoculum. […] The MIC was determined as the lowest concentration of antibiotic that prevented visible bacterial growth. Tetracycline was used as a positive control on each test plate.

[7] = tested on: E. coli (ATCC 25922); test: MIC, broth microdilution; assay type: cell-based
Method: as §2

[8] = tested on: E. coli D22; test: MIC, broth microdilution; assay type: cell-based; settings: Escherichia coli
Method: as §2

[9] = tested on: E. coli ESBL QA-11.3; test: MIC, broth microdilution; assay type: cell-based
Method: as §2

[10] = tested on: E. coli N43 (CGSC# 5583); test: MIC, broth microdilution; assay type: cell-based; settings: Escherichia coli
Method: as §2

[11] = tested on: E. faecalis RDK 057; test: MIC, broth microdilution; assay type: cell-based
Method: as §2

[12] = tested on: K. pneumoniae; test: MIC, broth microdilution; assay type: cell-based
Method: as §2

[13] = tested on: P. aeruginosa RDK 184; test: MIC, broth microdilution; assay type: cell-based
Method: as §2

[14] = tested on: S. aureus (ATCC 29213); test: MIC, broth microdilution; assay type: cell-based
Method: as §2

[15] = tested on: VRE; test: MIC, broth microdilution; assay type: cell-based; settings: Enterococcus
Method: as §2

[16] = tested on: MRSA (QA-11.2); test: MIC, broth microdilution; assay type: cell-based, S. aureus; settings: Staphylococcus aureus
Method: as §2

[17] = tested on: MRSA (QA-11.7); test: MIC, broth microdilution; assay type: cell-based, S. aureus; settings: Staphylococcus aureus
Method: as §2

[18] = tested on: MRSA(QA-12.1); test: MIC, broth microdilution; assay type: cell-based, S. aureus; settings: Staphylococcus aureus
Method: as §2

[19] = Metabolic activity assessment (cytotoxicity), CellTiter 96 Aqueous One; assay type: cell-based; settings: human, 72 h treatment, means of three independent measurements ± SD
Method: HUVEC (ATCC® CRL-1730™) and HepG2 (ATCC® HB-8065™) cell lines were cultured in Dulbecco’s Modified Eagle Medium (DMEM; Sigma-Aldrich, St. Louis, MO, USA) supplemented with 10% heat-deactivated FBS (Gibco, Grand Island, NE, USA), 2 mM L-glutamine, 100 U/mL penicillin, 100 μg/mL streptomycin (all from Sigma-Aldrich, St. Louis, MO, USA) in a humidified chamber at 37 °C and 5% CO2. The experiments were carried out on passages 4–7 for both cell lines. The tested compounds were dissolved in DMSO and further diluted in culture medium to a desired final concentration. The cells were then seeded into 96-well plates at 5 × 10^4 cells/mL (100 μL/well) or 8 × 10^4 cells/mL (100 μL/well) for HUVEC and HepG2, respectively. The cells were then incubated for 24 h to allow attachment onto the wells. The cells were treated with 1 μM and 50 μM of each compound of interest, or the corresponding vehicle as control. […] Their metabolic activity was assessed after 72 h treatment using a CellTiter 96 Aqueous One Solution Cell Proliferation Assay (Promega, Madison, WI, USA), in accordance with the manufacturer’s instructions. The absorbance was measured at 492 nm on an automated microplate reader, Tecan Spark (Tecan Group Ltd., Männedorf, CH, Switzerland). Data are presented as the percentage of metabolic activity of control cells stimulated with vehicle, or as an IC50 value (mean ± SD) from three independent experiments, each conducted in triplicate (for screening) or duplicate (for IC50 determination). IC50 values were calculated using a non-linear regression model and with Graph Pad Prism 9 software.

[20] = read-out: MIC E. coli N43 (CGSC# 5583)

T4 sequence (P20083 whole entry): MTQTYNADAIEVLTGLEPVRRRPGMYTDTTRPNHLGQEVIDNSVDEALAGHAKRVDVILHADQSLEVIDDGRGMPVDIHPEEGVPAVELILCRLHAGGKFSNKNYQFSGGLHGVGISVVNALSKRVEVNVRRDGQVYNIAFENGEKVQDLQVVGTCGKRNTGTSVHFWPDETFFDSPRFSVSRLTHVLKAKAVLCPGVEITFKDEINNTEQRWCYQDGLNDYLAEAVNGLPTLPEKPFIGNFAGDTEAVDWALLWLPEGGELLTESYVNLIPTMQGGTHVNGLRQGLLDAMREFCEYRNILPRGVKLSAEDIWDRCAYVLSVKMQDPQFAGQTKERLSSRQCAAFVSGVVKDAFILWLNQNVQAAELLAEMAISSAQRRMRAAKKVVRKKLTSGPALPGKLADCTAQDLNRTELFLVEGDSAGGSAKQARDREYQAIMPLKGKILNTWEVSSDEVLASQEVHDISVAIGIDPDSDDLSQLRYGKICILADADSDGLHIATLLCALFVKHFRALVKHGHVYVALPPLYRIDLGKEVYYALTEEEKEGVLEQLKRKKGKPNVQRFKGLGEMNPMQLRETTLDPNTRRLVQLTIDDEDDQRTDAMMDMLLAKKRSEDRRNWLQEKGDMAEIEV
T4 sequence (P0AFI2 whole entry): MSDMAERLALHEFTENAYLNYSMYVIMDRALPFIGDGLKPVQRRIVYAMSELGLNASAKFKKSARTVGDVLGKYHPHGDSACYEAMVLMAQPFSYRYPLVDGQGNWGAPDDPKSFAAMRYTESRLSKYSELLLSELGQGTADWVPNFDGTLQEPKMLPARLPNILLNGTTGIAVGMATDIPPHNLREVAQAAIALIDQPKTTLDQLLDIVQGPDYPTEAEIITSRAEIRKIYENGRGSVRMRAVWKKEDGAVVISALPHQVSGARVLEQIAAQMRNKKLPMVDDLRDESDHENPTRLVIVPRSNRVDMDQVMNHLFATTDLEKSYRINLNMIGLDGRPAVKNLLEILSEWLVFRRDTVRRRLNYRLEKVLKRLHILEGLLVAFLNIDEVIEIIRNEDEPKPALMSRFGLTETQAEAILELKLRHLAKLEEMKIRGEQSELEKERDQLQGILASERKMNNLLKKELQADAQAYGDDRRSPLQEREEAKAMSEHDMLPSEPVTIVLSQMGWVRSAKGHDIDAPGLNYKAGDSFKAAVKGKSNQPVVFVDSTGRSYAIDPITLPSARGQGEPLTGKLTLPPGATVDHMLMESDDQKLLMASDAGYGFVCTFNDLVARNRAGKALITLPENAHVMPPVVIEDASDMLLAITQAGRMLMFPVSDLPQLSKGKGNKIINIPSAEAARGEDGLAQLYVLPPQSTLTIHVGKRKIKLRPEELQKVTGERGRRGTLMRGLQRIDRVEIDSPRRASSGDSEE
T5 sequence (P11388 whole entry): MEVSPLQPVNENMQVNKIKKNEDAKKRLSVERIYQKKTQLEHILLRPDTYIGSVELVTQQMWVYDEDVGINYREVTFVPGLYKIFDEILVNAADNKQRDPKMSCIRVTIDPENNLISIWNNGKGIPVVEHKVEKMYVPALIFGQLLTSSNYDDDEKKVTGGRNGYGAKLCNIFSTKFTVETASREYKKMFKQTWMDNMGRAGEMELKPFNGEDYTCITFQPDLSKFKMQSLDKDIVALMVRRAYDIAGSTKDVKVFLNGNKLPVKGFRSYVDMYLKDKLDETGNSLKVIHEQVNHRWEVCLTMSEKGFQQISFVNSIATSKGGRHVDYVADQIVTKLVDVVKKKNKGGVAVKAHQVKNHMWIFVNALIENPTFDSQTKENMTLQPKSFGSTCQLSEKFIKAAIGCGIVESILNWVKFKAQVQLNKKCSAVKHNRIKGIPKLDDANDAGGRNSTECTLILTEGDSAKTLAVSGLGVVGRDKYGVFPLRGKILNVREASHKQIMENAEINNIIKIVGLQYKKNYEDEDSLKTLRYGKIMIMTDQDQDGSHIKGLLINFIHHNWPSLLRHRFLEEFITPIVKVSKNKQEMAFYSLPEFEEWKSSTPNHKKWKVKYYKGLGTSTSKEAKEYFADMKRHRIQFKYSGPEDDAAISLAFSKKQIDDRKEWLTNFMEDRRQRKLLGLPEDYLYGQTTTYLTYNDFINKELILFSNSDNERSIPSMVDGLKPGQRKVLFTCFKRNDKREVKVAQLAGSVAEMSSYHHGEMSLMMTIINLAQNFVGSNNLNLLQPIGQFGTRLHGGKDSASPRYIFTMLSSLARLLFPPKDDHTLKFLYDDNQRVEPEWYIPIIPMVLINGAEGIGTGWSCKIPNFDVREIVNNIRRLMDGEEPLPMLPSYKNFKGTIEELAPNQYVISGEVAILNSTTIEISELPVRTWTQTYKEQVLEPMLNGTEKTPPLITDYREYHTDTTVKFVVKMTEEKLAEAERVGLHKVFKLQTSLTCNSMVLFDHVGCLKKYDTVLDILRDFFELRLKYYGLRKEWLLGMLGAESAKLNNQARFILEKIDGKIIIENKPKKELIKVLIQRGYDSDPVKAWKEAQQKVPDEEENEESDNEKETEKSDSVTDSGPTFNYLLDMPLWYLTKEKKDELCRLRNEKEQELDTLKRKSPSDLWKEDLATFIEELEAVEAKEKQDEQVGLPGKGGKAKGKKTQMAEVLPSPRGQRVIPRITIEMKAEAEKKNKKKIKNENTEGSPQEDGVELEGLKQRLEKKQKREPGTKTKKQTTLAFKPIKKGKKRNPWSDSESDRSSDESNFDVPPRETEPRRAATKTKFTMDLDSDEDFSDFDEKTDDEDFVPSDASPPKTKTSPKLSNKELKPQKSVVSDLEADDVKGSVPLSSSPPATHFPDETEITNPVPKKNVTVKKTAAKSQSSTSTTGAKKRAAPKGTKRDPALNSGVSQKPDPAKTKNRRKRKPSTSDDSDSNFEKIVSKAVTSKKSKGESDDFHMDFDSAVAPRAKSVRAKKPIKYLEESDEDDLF
T1 sequence (P20831 whole entry): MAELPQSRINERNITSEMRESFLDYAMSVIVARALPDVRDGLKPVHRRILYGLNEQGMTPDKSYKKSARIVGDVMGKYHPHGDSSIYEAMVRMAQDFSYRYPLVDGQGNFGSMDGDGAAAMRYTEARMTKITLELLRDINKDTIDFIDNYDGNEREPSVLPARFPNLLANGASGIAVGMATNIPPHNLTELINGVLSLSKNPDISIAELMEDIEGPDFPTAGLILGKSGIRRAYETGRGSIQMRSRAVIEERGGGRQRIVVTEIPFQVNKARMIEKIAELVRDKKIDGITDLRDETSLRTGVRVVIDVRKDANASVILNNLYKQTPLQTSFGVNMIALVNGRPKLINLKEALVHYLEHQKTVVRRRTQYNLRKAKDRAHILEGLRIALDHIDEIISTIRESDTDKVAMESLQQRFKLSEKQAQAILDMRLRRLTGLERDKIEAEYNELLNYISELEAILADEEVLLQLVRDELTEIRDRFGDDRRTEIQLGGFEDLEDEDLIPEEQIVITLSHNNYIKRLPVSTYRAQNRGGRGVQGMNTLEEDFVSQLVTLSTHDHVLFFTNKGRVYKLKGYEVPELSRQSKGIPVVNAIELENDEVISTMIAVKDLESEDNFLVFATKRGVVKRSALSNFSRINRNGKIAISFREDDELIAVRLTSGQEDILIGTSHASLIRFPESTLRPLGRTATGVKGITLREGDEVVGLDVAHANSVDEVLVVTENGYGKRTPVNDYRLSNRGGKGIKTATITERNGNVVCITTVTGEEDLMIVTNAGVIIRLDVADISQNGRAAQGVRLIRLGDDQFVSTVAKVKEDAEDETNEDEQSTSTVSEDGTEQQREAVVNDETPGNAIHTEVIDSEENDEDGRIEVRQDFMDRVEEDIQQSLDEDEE
T1 sequence (P0A0K8 whole entry partner): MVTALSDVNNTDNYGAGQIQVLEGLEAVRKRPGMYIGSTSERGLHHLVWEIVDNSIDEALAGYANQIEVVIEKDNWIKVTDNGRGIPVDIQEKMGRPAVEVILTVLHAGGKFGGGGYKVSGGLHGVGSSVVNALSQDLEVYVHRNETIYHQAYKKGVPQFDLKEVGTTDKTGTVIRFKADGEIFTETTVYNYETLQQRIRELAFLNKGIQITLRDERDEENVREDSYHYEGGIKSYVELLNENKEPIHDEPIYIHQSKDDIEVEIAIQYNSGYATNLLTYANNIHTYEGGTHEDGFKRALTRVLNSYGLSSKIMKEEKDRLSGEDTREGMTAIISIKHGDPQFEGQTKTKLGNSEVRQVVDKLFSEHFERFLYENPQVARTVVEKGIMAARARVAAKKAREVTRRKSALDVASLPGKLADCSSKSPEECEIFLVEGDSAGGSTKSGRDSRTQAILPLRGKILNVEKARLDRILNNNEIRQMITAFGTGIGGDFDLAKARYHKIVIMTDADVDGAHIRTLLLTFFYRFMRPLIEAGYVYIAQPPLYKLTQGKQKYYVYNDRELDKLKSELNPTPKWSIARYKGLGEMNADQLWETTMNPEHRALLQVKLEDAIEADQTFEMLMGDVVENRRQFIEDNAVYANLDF

What does the source list for COc1ccc2nccc(CCN3CCC(NCc4ccc(Br)c(C(F)(F)F)c4)CC3)c2n1 [Compound 12, N-(4-Bromo-3-(trifluoromethyl)benzyl)-1-(2-(6-methoxy-1,5-naphthyridin-4-yl)ethyl)piperidin-4-amine]?
IC50 [1]: 0.062 µM; IC50 [2]: 0.345 ± 0.025 µM; IC50 [3]: 0.084 ± 0.02 µM; IC50 [4]: 0.023 ± 0.006 µM; remaining activity at 100 µM [5]: 102%; MIC ([6]; Acinetobacter baumannii; Table S3; read-out: MIC (μM) A. baumannii): 5.12 µM; MIC ([6]; Acinetobacter baumannii; read-out: MIC A. baumannii): 2 µg/mL; MIC ([7]; Escherichia coli, ATCC25922; Table S3; read-out: MIC (μM) E. coli (ATCC 25922)): 10.2 µM; MIC ([7]; Escherichia coli, ATCC25922; read-out: MIC E. coli (ATCC 25922)): 4 µg/mL; MIC ([8]; D22, Table S3, lpxC mutation, read-out: MIC (μM) E. coli D22): 0.64 µM; MIC ([8]; D22, lpxC mutation that increases membrane permeability, read-out: MIC E. coli D22): 0.25 µg/mL; MIC ([9]; Escherichia coli, ESBLQA11.3; Table S3; read-out: MIC (μM) E. coli ESBL QA:11.3): 10.2 µM; MIC ([9]; Escherichia coli, ESBLQA11.3; read-out: MIC E. coli ESBL QA-11.3): 4 µg/mL; MIC ([10]; read-out: MIC (μM) E. coli N43): 0.161 µM; MIC [10, 20]: 0.063 µg/mL; MIC ([11]; Enterococcus faecalis, RDK057; Table S3; read-out: MIC (μM) E. faecalis DRK 057): 1.28 µM; MIC ([11]; Enterococcus faecalis, RDK057; read-out: MIC E. faecalis RDK 057): 0.5 µg/mL; MIC ([12]; Klebsiella pneumoniae; Table S3; read-out: MIC (μM) K. pneumoniae): 41 µM; MIC ([12]; Klebsiella pneumoniae; read-out: MIC K. pneumoniae): 16 µg/mL; MIC ([13]; Pseudomonas aeruginosa, RDK184, 20 h; Table S3; read-out: MIC (μM) P. aeruginosa RDK 184): > 328 µM; MIC ([13]; Pseudomonas aeruginosa, RDK184; read-out: MIC P. aeruginosa RDK 184): > 128 µg/mL; MIC ([14]; Staphylococcus aureus, ATCC29213; Table S3; read-out: MIC (μM) S. aureus (ATCC 29213)): 0.082 µM; MIC ([14]; Staphylococcus aureus, ATCC29213; read-out: MIC S. aureus (ATCC 29213)): 0.032 µg/mL; MIC ([15]; Table S3, read-out: MIC (μM) VRE): 0.64 µM; MIC ([15]; read-out: MIC VRE): 0.25 µg/mL; MIC ([16]; read-out: MIC (μM) MRSA (QA-11.2)): 0.161 µM; MIC ([16]; read-out: MIC MRSA (QA-11.2)): 0.063 µg/mL; MIC ([17]; read-out: MIC (μM) MRSA (QA-11.7)): 0.161 µM; MIC ([17]; strain resistant to cefoxitin, ciprofloxacin, clindamycin, erythromycin, tetracycline, thiamulin, trimethoprim, read-out: MIC MRSA (QA-11.7)): 0.063 µg/mL; MIC ([18]; Table S3, read-out: MIC (μM) MRSA(QA-12.1)): 0.082 µM; MIC ([18]; strain resistant to cefoxitin, gentamicin, kanamycin, rifampicin, streptomycin, sulfamethoxazole, tetracycline, read-out: MIC MRSA(QA-12.1)): 0.032 µg/mL; IC50 at 72 h ([19]; HepG2 cells (ATCC HB-8065)): 12 ± 1.86 µM

Which IC50 [1] does the source give for COc1ccc2nccc(OCC3CCC(NCc4ccc(N)cc4)CC3)c2n1 (stereo not drawn) [Compound 10, 4-(((4-(((6-methoxy-1,5-naphthyridin-4-yl)oxy)methyl)cyclohexyl)amino)methyl)aniline] here?
Its IC50 is > 100 µM.

And the IC50 [2]?
The IC50 was > 100 µM.

And the IC50 [3]?
The IC50 was > 100 µM.

And the IC50 [4]?
Its IC50 is > 100 µM.

And the remaining activity at 100 µM [5]?
Its remaining activity at 100 µM is 99 ± 1%.

What about the MIC ([6]; Acinetobacter baumannii, 20 h, read-out: MIC (μM) A. baumannii) of the same compound?
Its MIC is > 328 µM.

What about the MIC ([6]; Acinetobacter baumannii, read-out: MIC A. baumannii) of the same compound?
Its MIC is > 128 µg/mL.

And the MIC ([7]; Escherichia coli, ATCC25922, 20 h, read-out: MIC (μM) E. coli (ATCC 25922))?
Its MIC is > 328 µM.

And the MIC ([7]; Escherichia coli, ATCC25922, read-out: MIC E. coli (ATCC 25922))?
Its MIC is > 128 µg/mL.

What about the MIC ([8]; D22, 20 h, read-out: MIC (μM) E. coli D22) of the same compound?
The MIC was > 328 µM.

What about the MIC ([8]; D22, read-out: MIC E. coli D22) of the same compound?
The MIC was > 128 µg/mL.

What about the MIC ([9]; Escherichia coli, ESBLQA11.3, 20 h, read-out: MIC (μM) E. coli ESBL QA:11.3) of the same compound?
The MIC was > 328 µM.

And the MIC ([9]; Escherichia coli, ESBLQA11.3, read-out: MIC E. coli ESBL QA-11.3)?
The MIC was > 128 µg/mL.

What about the MIC ([10]; 20 h, read-out: MIC (μM) E. coli N43) of the same compound?
The MIC was > 328 µM.

And the MIC [10, 20]?
The MIC was > 128 µg/mL.

What about the MIC ([11]; Enterococcus faecalis, RDK057, read-out: MIC (μM) E. faecalis DRK 057) of the same compound?
The MIC was > 328 µM.

And the MIC ([11]; Enterococcus faecalis, RDK057, read-out: MIC E. faecalis RDK 057)?
The MIC was > 128 µg/mL.

And the MIC ([12]; Klebsiella pneumoniae, 20 h, read-out: MIC (μM) K. pneumoniae)?
The MIC was > 328 µM.

What about the MIC ([12]; Klebsiella pneumoniae, read-out: MIC K. pneumoniae) of the same compound?
The MIC was > 128 µg/mL.

And the MIC ([13]; Pseudomonas aeruginosa, RDK184, 20 h, read-out: MIC (μM) P. aeruginosa RDK 184)?
The MIC was > 328 µM.

And the MIC ([13]; Pseudomonas aeruginosa, RDK184, read-out: MIC P. aeruginosa RDK 184)?
Its MIC is > 128 µg/mL.

What about the MIC ([14]; Staphylococcus aureus, ATCC29213, 20 h, read-out: MIC (μM) S. aureus (ATCC 29213)) of the same compound?
Its MIC is > 328 µM.

What about the MIC ([14]; Staphylococcus aureus, ATCC29213, read-out: MIC S. aureus (ATCC 29213)) of the same compound?
The MIC was > 128 µg/mL.

What about the IC50 at 72 h ([19]; HUVEC cells (ATCC CRL-1730)) of the same compound?
Its IC50 at 72 h is > 50 µM.

What about the IC50 at 72 h ([19]; HepG2 cells (ATCC HB-8065)) of the same compound?
The IC50 at 72 h was > 50 µM.
